Series [1] addresses T1, RPA–DNA interaction (purified full-length RPA) (Homo sapiens, UniProt P27694).
T1 construct: Purified full-length RPA (120 ng) was incubated with the indicated RPAi
Description: EMSA of RPA–DNA interaction inhibition. It counts as binding. Particulars: 6.25, 12.5, 25, 50 µM RPAi. Here is the method:
EMSAs were performed as previously described ([9]). Briefly, reactions were conducted in 20 mM HEPES (pH 7.8), 1 mM DTT, 0.001% NP-40, and 50 mM NaCl. RPAis were suspended in 100% dimethlysulfoxide (DMSO), and DMSO concentration in the final reaction mixture was constant at less than 5%. Purified full-length RPA (120 ng) was incubated with the indicated RPAi or vehicle in reaction buffer for 30 min before the addition of the [^32]P-labeled 34-base ssDNA probe. Reactions were incubated for 5 min at room temperature, and products were separated via 6% native polyacrylamide gel electrophoresis. The bound and unbound fractions were quantified by phosphor-imager analysis using ImageQuant software (Molecular Dynamics, CA), and data were fit by non-linear regression using GraphPad Prism.
Figure 2 Replication protein A inhibitor (RPAi) inhibitory activity. (A) Chemical structure of RPAi’s 329 and 2004. (B) EMSA analysis of RPA–DNA interaction inhibition by 329 and 2004. Lanes 3–6 in each panel contain 6.25, 12.5, 25, and 50 µM of the indicated RPAi, respectively. The * indicates the position of the Escherichia coli SSB–single-stranded DNA (ssDNA) complex that serves as an internal specificity control. (C) Cell viability of H460 NSCLC cells in response to 329 and 2004.

On the set-up of series [2]: method as in PMID 32550990. The conditions noted are these: cited from earlier work.
In a further series the test system is H460 cells. Description: Caspase 3/7 apoptosis assay. It counts as cell-based, human. Particulars: H460, 24 h. Here is the method: Apoptosis induction was determined by activation of Caspases 3 and 7 using the CellEvent™ Caspase-3/7 Green Detection Reagent (Invitrogen). H460 cells were plated at 5 × 10^3 cells/well in black 96-well plates with clear bottoms (Costar) and incubated for 24 h prior to treatments. Cells were treated with the indicated concentration of RPAi or cisplatin for 24 h. The vehicle (DMSO) concentration was held constant at 1% for RPAi treatments. For caspase 3/7 detection, medium was removed and replaced with phosphate buffered saline (PBS) containing 5% fetal bovine serum (FBS) and 2 µM CellEvent™ Caspase-3/7 Green Detection Reagent. Cells were incubated at 37°C/5% CO2 for 1 h, and fluorescence intensity was measured in a BioTek Synergy H1 plate reader (excitation/emission 485/528). Images were captured with an Evos FL2 Auto microscope (Invitrogen) using a 10× objective.
Figure 3 The 329 induction of apoptotic cell death. (A) Analysis of caspase 3/7 activity in H460 cells following 24 h of treatment with 1% DMSO or the indicated concentrations of 329. Fluorescence images were captured as described in the Materials and Methods. (B) Quantification of caspase 3/7 activity. Fluorescence was measured in 96-well plates using a Biotek Synergy H1 plate reader following 24-h incubation with the indicated drugs and concentrations.

The test system of series [3] is H460 NSCLC tumor xenografts. Description: H460 NSCLC xenograft efficacy. Type of series: in vivo, mice. Particulars: 20 mg/kg IP daily for 5 days, 2 days off, repeated 3 times, optimized formulation. From the text: To assess anticancer efficacy, the hind flanks of 60 8–10-week-old Nod SCID gamma (NSG) mice were implanted with the indicated cells (~2 × 10^6) in Matrigel. Tumor volumes were monitored by electronic caliper measurement [tumor volumes = length × (perpendicular width)^2 × 0.5]. NSG studies were approved by the Institutional Animal Care and Use Committee at Indiana University School of Medicine. Male NSG (NOD‐scid/IL2Rg^null) mice (In Vivo Therapeutics Core Facility, IU Simon Comprehensive Cancer Center, Indianapolis, IN, USA) were used and housed in a pathogen‐free facility at IUSM LARC. Mice with tumors of approximately 100 mm^3 were randomized into individual treatment arms. The indicated RPAi was formulated and administered via intraperitoneal injection (IP) at the indicated times. Tumor volumes were monitored biweekly as indicated, and the results are presented as the average tumor volume ± standard error of the mean for each group. […]
Figure 8 In vivo analysis of anticancer activity of 329. (A) Anticancer activity was assessed in human H460 NCSLC tumor xenografts in NOD/SCID mice. Mice were implanted subcutaneously on day 1 with H460 NSCLC cells, tumors were measured by calipers, and mice assigned randomly to treatment arms. […] (C) Tumor weight from A549 cells was determined on day 32. […]

Series [4] can be described thus: Vehicle/excipient solubility screen. It counts as physicochemical. Here is the method:
With favorable potency, cellular activity, plasma stability, and a clear deficit in PK, we initiated a series of studies to assess and optimize a formulation of 329 for in vivo bioavailability. Here, 329 solubility was assessed in a series of additives, excipients, and co-solvents to identify initial favorable vehicles ( Table 2 ). […] A series of different formulations were assessed. The final formulation consisted of polysorbate 80, N-methyl-2-pyrrolidone (NMP), propylene glycol, and PEG 400 (+1.1 mol. eq. HCl added as 12 M HCl), and 329 was soluble up to 20 mg/ml, and 10-fold dilution in PBS was well dispersed with minimal precipitation.

The values below come from PMC8895377, “In Vivo Targeting Replication Protein A for Cancer Therapy” (Frontiers in Oncology, 2022).

Converted amounts (≈) assume the structure as drawn. Where two headings read alike, the source gives them in different places.

T1 sequence (P27694 whole entry): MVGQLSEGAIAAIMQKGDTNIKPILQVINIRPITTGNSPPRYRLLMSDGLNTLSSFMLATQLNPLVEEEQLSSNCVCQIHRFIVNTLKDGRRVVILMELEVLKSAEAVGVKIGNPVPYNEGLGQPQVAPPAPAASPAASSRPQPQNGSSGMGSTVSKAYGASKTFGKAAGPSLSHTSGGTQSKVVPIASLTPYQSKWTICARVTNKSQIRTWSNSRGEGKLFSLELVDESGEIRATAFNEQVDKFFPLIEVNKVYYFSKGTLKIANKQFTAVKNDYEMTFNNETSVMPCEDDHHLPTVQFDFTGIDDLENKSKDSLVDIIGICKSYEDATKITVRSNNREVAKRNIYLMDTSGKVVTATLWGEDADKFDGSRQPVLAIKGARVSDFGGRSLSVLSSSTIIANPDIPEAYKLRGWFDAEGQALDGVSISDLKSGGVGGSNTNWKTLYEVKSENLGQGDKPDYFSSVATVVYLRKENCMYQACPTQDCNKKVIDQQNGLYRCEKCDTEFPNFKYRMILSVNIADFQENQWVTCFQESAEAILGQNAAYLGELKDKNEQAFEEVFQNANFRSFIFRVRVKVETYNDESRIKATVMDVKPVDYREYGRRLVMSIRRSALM
T1 sequence (P15927 whole entry partner): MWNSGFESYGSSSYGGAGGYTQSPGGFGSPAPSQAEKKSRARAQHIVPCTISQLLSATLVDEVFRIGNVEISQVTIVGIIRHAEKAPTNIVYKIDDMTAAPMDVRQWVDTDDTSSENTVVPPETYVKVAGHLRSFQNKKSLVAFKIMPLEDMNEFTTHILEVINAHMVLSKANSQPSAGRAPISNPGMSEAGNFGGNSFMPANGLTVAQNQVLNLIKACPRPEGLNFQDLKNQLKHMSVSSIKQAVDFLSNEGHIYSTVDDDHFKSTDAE
T1 sequence (P35244 whole entry partner): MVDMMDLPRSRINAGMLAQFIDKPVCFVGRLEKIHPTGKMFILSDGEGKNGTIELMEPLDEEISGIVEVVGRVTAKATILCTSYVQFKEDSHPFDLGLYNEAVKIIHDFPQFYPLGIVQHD

In general, solubility refers to the concentration that dissolves in the medium under given conditions. Turning to `CCOc1ccc2cc(C3CC(c4ccc(I)cc4)=NN3C(=O)CCCC(=O)NCCCN3CCOCC3)c(Cl)nc2c1` (stereo not shown) [compound 329], the “RPA inhibitory activity (RPA–DNA interaction, EMSA)” value in series [1] was “potent RPA inhibitory activity”. Further, the “solubility, cellular uptake, and physicochemical properties” value in series [2] is given as “excellent”. The “activation of caspases 3 and 7” value in the series with H460 cells is on record as “induces cell death via a classical apoptotic pathway”. In addition, the tumor volume result in series [3] is given as “a decrease in tumor volume was observed starting at day 17”. The solubility in series [4] (30% SBECD in water, aqueous with cosolvent or surfactant or cyclodextrin, read-out: Solubility) is < 1000 µg/mL; in series [4] (Cremophor EL, aqueous with cosolvent or surfactant or cyclodextrin, read-out: Solubility), < 1000 µg/mL; in series [4] (Labrasol, aqueous with cosolvent or surfactant or cyclodextrin, read-out: Solubility), 1100 µg/mL (≈ 1530 µM); in series [4] (NMP (N-methyl-2-pyrrolidone), organic solvent or mixture, read-out: Solubility), 70400 µg/mL (≈ 98000 µM); in series [4] (aqueous buffer, 50 mM sodium acetate pH 4, read-out: Solubility), < 1000 µg/mL; in series [4] (ethanol, organic solvent or mixture, read-out: Solubility), < 1000 µg/mL. Moreover, the solubility in series [4] (oleic acid, oil or lipid, read-out: Solubility) is 2400 µg/mL (≈ 3340 µM); in series [4] (organic solvent or mixture, polysorbate 80, NMP, propylene glycol, PEG 400 (+1.1 mol. eq. HCl), read-out: solubility in final formulation), ≤ 20000 µg/mL; in series [4] (polyethylene glycol 400, organic solvent or mixture, read-out: Solubility), 1200 µg/mL (≈ 1670 µM); in series [4] (polysorbate 80, aqueous with cosolvent or surfactant or cyclodextrin, Polysorbate 8O, read-out: Solubility), < 1000 µg/mL; in series [4] (propylene glycol, organic solvent or mixture, read-out: Solubility), 1300 µg/mL (≈ 1810 µM); in series [4] (water, read-out: Solubility), < 1000 µg/mL.
